We go through one compound from patent US20210087217A1, “NUCLEOTIDE HEMI-SULFATE SALT FOR THE TREATMENT OF HEPATITIS C VIRUS” (Atea Pharmaceuticals, Inc., priority 2017, published 2021).

Where a name gives a salt, the structure may show the parent alone.

Data set [1] in a line: Plasma profiles of Compound 2 metabolites in rats. As to conditions: rats, single oral dose of Compound 2. How it is done: The results for a single 500 mg/kg dose in rats is shown in FIG. 17 and the results for a single 30, 100, or 300 mg/kg dose in monkeys is shown in FIG. 18.
Data set [2] is described as follows: Heart and liver tissue levels of active triphosphate 4 hours after oral Compound 2, rats. It is filed as in vivo, rat. As to conditions: 4 hours after oral dose of Compound 2. On the procedure: High levels of the active TP were measured in the liver of all species tested.
Data set [3] can be described thus: Single ascending dose study of Compound 2 in healthy volunteers (Part A): safety, tolerability, pharmacokinetic. Format: in vivo, human. As to conditions: healthy subjects. How it is done: Compound 2 was tested in a single ascending dose (SAD) study to measure its safety, tolerability, and pharmacokinetic in healthy subjects (Part A). Part A was a randomized, double-blind, placebo-controlled SAD study. Healthy subjects in Part A received a single dose of Compound 2 or placebo in the fasting state. Subjects were confined to the clinic from Day −1 to Day 6.
Dosing in each cohort was staggered such that 2 subjects (1 active:1 placebo) were evaluated for 48 hours after dosing before the remainder of the cohort was dosed. Each cohort received Compound 2 in ascending order. Dosing of sequential cohorts occurred based on review of available safety data (through Day 5) and plasma pharmacokinetic data (through 24 h) of the prior cohort.
As pharmacokinetic and safety data emerged from prior cohorts, doses evaluated in Cohorts 3a-4a were adjusted by increments no more than 100 mg.
Healthy volunteers in the Part A portion of the study were male and female subjects between the ages of 18 and 65. Active and placebo recipients were pooled within each Part A cohort to preserve the study blind.
Pharmacokinetic of Compound 1 and nucleoside metabolite 1-7 were measured following the single dose of Compound 2. […] Values are reported as mean±SD, except or Tmax where median (range) is reported.

The nature of data set [4]: Head-to-head comparison of plasma levels in dogs dosed with Compound 1 and Compound 2. Format: in vivo, dog. As to conditions: dosed Compound 1 25 mg/kg or Compound 2 30 mg/kg, normalized to a dose of 25 mg/kg. On the procedure:
A head-to-head comparison of dogs dosed with Compound 1 and Compound 2 was conducted.

For `CNc1nc(N)nc2c1ncn2[C@@H]1O[C@H](CO[P@@](=O)(N[C@@H](C)C(=O)OC(C)C)Oc2ccccc2)[C@@H](O)[C@@]1(C)F` [Compound 2, hemi-sulfate salt of isopropyl((S)-(((2R,3R,4R,5R)-5-(2-amino-6-(methylamino)-9H-purin-9-yl)-4-fluoro-3-hydroxy-4-methyltetrahydrofuran-2-yl)methoxy)(phenoxy)phosphoryl)-L-alaninate], the “Plasma levels of parent nucleotide prodrug” value in data set [1] is listed as “very low plasma levels”. In data set [2], the “Active TP (metabolite 1-6) level in heart” value was “unquantifiable levels” and the “Active TP (metabolite 1-6) level in liver” value is “High levels”. Moreover, in data set [3] (Part A), the “Intensity of adverse effects” value is listed as “mild to moderate” and the Serious adverse events entry is on record as “No serious adverse events”. Moreover, the “Tolerability” value in data set [3] (single oral dose) is reported as “well tolerated”. Further, in data set [4], the “Mean Dose-normalized AUC(0-4hr) for Compound 1” value worked out at 1.0 µM·h.
